Our source for the IC50 values is US10028961B2, “Therapeutically active compounds and their methods of use” (AGIOS PHARMACEUTICALS, INC., priority 2013, dated 2018).

Read-outs that look alike come from different tables or passages of the source. Bounds are passed on as bounds.

Test [1] concerns the target IDH1 wt/IDH1 R132H heterodimer (Homo sapiens (Human), UniProt O75874, R132H). Kind of test: In vitro assay for IDH1m R132H inhibitors, IDH1 wt/IDH1 R132H heterodimer, NADPH depletion (diaphorase/resazurin). The format is biochemical. In outline: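 Read-out is NADPH left after α-KG reduction to 2-HG, measured via resorufin fluorescence after 5 min diaphorase/resazurin step at 25° C. Enzyme is sf9-expressed IDH1wt-his/IDH1R132H-flag heterodimer, pre-incubated 1 hr at room temperature with compound and cofactor. IC50s from DMSO stocks diluted 1:50.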
Background: Resazurin is reduced to fluorescent resorufin, in cell work by metabolically active cells.

For test [2], the target named is IDH2 R140Q (Homo sapiens (Human), UniProt P48735, R140Q). Put plainly: In vitro assay for IDH2m R140Q inhibitors, cofactor depletion assay, 16 hr preincubation with NADPH/NADP. Particulars: read-out: IDH2 R140Q 16 hr NADPH/NADP IC50; 16 hrs preincubation with enzyme, 5 uM NADPH and 750 uM NADP. The format is biochemical. The text has this: The following describes the experimental procedures used to obtain data on column 6 of Table 5.
Chain of IDH2 R140Q (P48735 40-452 R140Q): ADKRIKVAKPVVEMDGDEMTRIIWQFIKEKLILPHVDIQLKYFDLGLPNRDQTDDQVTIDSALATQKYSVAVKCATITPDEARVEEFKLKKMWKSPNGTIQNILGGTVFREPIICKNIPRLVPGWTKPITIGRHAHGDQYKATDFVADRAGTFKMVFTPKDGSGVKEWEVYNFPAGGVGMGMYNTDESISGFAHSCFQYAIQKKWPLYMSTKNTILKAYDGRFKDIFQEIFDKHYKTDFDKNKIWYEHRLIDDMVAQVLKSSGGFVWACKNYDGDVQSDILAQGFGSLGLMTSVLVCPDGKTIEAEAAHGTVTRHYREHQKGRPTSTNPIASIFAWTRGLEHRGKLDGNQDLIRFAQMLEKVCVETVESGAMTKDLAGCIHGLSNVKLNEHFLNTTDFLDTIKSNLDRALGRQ
The reaction is terminated by the addition of a second enzyme, diaphorase, and a corresponding substrate, resazurin. Diaphorase reduces resazurin to the highly fluorescent resorufin with the concomitant oxidation of NADPH to NADP, both halting the IDH2 reaction by depleting the available cofactor pool and facilitating quantitation of the amount of cofactor remaining after a specific time period through quantitative production of an easily detected fluorophore.
The test compound is then incubated for 16 hrs at room temperature with the enzyme and cofactors before starting the IDH2 reaction with the addition of 10 μl of substrate mix containing 8 mM α-KG (final concentration 1.6 mM) in the buffer described above. After a further 1 hour of incubation at room temperature, the reaction is halted and the remaining NADPH measured through conversion of resazurin to resorufin by the addition of 25 μl Stop Mix (36 μg/ml diaphorase enzyme and 60 μM resazurin; in buffer).

Test [3] has as its system HT1080 cells. Put plainly: Cellular assay for IDH1m R132C inhibitors, 2-HG by LC-MS in HT1080 cells. It is filed as cell-based. Particulars: Homo sapiens, HT-1080. In outline: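 2-HG levels were measured by LC-MS in culture medium sampled 48 h after compound addition (0.2% DMSO) to HT1080 cells seeded overnight at 5000 cells/well. A CellTiter-Glo luminescence read at 72 h gave cell viability.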

Test [4] deals with IDH1-R132C homodimer enzyme (Homo sapiens (Human), UniProt O75874, R132C). Put plainly: In vitro assay IDH1-R132C homodimer, NADPH depletion assay with NADPH/NADP preincubation. The format is biochemical. Particulars: 5 uM NADPH and 28.75 uM NADP, read-out: IDH R132C NADPH/NADP IC50. The procedure: The following describes the experimental procedures that can be used to obtain data on columns 3 and 5 of Table 5.
Chain of IDH1-R132C homodimer enzyme (O75874 whole entry R132C): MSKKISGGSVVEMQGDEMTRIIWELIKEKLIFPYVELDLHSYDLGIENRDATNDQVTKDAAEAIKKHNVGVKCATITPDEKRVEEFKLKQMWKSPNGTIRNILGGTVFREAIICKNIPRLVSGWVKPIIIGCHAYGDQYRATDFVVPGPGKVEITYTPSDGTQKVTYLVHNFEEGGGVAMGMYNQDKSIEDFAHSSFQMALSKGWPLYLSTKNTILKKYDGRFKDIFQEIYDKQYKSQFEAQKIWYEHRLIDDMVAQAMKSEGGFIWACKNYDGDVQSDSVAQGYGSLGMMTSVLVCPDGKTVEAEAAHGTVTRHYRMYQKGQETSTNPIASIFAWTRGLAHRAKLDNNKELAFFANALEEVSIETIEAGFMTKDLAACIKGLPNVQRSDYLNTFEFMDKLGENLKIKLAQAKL
A test compound is prepared as 10 mM stock in DMSO and diluted to 50× final concentration in DMSO, for a 50 μl reaction mixture. IDH enzyme activity converting alpha-ketoglutarate to 2-hydroxyglutaric acid is measured using a NADPH depletion assay. In the assay the remaining cofactor is measured at the end of the reaction with the addition of a catalytic excess of diaphorase and resazurin, to generate a fluorescent signal in proportion to the amount of NADPH remaining. […] The reaction is started with the addition of 10 μl of Substrate Mix ([…], 5 mM alpha-ketoglutarate, in Assay Buffer) and the mixture is incubated for 60 minutes at room temperature.
The concentration of alpha-ketoglutarate in the Substrate Buffer is 1 mM.

[5] abbreviates: IDH1 wt/R132H heterodimer, NADPH/NADP, not saturated, read-out: IDH1 wt/R132H NADPH/NADP IC50 not saturated.
[6] abbreviates: IDH1 wt/IDH1 R132H heterodimer, 300 μM NADP (saturated), read-out: IDH1 wt/R132H NADPH/NADP IC50 saturated.

Chain of IDH1 wt/IDH1 R132H heterodimer (O75874 whole entry R132H): as the sequence (O75874 whole entry R132C) above, with C132H counted along it
Chain of IDH1 wt/IDH1 R132H heterodimer (O75874 whole entry, stated change not applied): as the sequence (O75874 whole entry R132C) above, with C132R counted along it

Regarding `CC(C)(C)Nc1nc(Nc2cccc(C#N)c2)nc(-c2cccc(C(F)(F)F)n2)n1` [Compound 117], the IC50 in test [1] (setting [5]) is less than 50 nM; in test [2], less than 50 nM; in test [3], more than 1000 nM.

For the compound `N#CC1(c2cc(Nc3nc(NC4CCC(F)(F)CC4)nc(-c4cccc(C(F)(F)F)n4)n3)ccn2)CC1` [Compound 189], the values for the IC50 in test [1] (setting [5]), in test [4] and in test [3] were less than 50 nM, 100 to 1000 nM and 100 to 1000 nM, respectively.

For `FC1(F)CC(Nc2nc(NC3CC(F)(F)C3)nc(-c3cncc(C(F)(F)F)n3)n2)C1` [Compound 161], the IC50 in test [1] (setting [5]) was less than 50 nM; in test [4], 50 to 100 nM; in test [3] it was less than 50 nM.

As to `FC1(F)CCC(Nc2nc(NC3CCN(Cc4ccccc4)C3)nc(-c3cccc(C(F)(F)F)n3)n2)C1` (stereo not drawn) [Compound 280], the IC50 in test [1] (setting [5]) was 100 to 1000 nM; in test [2], 100 to 1000 nM; in test [3] it was more than 1000 nM.

Consider `CS(=O)(=O)N1CCC(Nc2nc(NC3CCC(F)(F)CC3)nc(-c3cccc(C(F)(F)F)n3)n2)CC1` [Compound 266], for which the IC50 in test [1] (setting [5]) was 100 to 1000 nM; in test [2], 100 to 1000 nM; in test [3], more than 1000 nM.

Consider `CC(C)(O)CNc1nc(Nc2cc(F)cc(C#N)c2)nc(-c2cccc(C(F)(F)F)n2)n1` [Compound 244], for which the IC50 in test [1] (setting [5]) was 50 to 100 nM; in test [2] it was 50 to 100 nM; in test [3], more than 1000 nM.

Consider `FC1(F)CC[C@H](Nc2nc(Nc3ccnc(C(F)(F)F)c3)nc(-c3cncc(C(F)(F)F)n3)n2)C1` [Compound 391], for which the IC50 in test [1] (setting [6]) was less than 50 nM; in test [4], 100 to 1000 nM; in test [3] it was 100 to 1000 nM.

`FC1(F)CCC(Nc2nc(NC3CCC(F)(F)CC3)nc(-c3cncc(C(F)(F)F)n3)n2)CC1` [Compound 160]: the results for the IC50 in test [1] (setting [5]), in test [4] and in test [3] were less than 50 nM, 100 to 1000 nM and less than 50 nM, respectively.

As to `N#CC1(c2cc(Nc3nc(NC4CC(F)(F)C4)nc(-c4cncc(C(F)(F)F)n4)n3)ccn2)CC1` [Compound 401], the results for the IC50 in test [1] (setting [6]), in test [4] and in test [3] were less than 50 nM, 100 to 1000 nM and 100 to 1000 nM, respectively.

For the compound `CC(Nc1nc(N[C@H](C)C2CC2)nc(-c2cccc(C(F)(F)F)n2)n1)C(F)(F)F` (stereo partly drawn) [Compound 203], the IC50 in test [1] (setting [5]), in test [2] and in test [3] was less than 50 nM in each case.

For the compound `CC(=O)N1CCC(Nc2nc(NC3CCC(F)(F)CC3)nc(-c3cccc(C(F)(F)F)n3)n2)CC1` [Compound 273], the IC50 was 100 to 1000 nM in test [1] (setting [5]), more than 1000 nM in test [2] and more than 1000 nM in test [3].

In the case of `Fc1cc(F)cc(Nc2nc(NC3CC(F)(F)C3)nc(-n3ccc(C(F)(F)F)n3)n2)c1` [Compound 106], the IC50 was less than 50 nM in test [1] (setting [5]), less than 50 nM in test [4] and 100 to 1000 nM in test [3].

As to `FC1(F)CCC(Nc2nc(NC3CCC(F)(F)C3)nc(-c3cccc(Cl)n3)n2)C1` (stereo not drawn) [Compound 113], the IC50 in test [1] (setting [5]), in test [2] and in test [3] was less than 50 nM each time.

On to `FC1(F)CCC(Nc2nc(NC3CCOCC3)nc(-c3cccc(C(F)(F)F)n3)n2)CC1` [Compound 255], for which the IC50 in test [1] (setting [5]), in test [2] and in test [3] was 100 to 1000 nM each time.

As for `O=C(c1ccccc1)N1CCC(Nc2nc(NC3CCC(F)(F)C3)nc(-c3cccc(C(F)(F)F)n3)n2)C1` (stereo not drawn) [Compound 263], the IC50 in test [1] (setting [5]), in test [2] and in test [3] was 100 to 1000 nM in each case.

As for `N#CC1(c2cc(Nc3nc(NC4CC(F)(F)C4)nc(-c4cccc(C(F)(F)F)n4)n3)ccn2)CC1` [Compound 168], the IC50 in test [1] (setting [5]) is less than 50 nM; in test [4] it was 50 to 100 nM; in test [3] it was less than 50 nM.

For `FC1(F)CCC(Nc2nc(Nc3ccnc(C(F)(F)F)c3)nc(-c3cncc(C(F)(F)F)n3)n2)CC1` [Compound 389], the IC50 is less than 50 nM in test [1] (setting [6]), 100 to 1000 nM in test [4] and 100 to 1000 nM in test [3].
